# Measured values reported in patent US9387195B2, “Methods for treating diseases using isoindoline compounds” (Celgene Corporation, priority 2011, dated 2016).
# What was measured:
# [1] = system: IFN-α production; assay: IFN-α ELISA in CpG-A stimulated hPBMC (Example 18); type: cell-based, human; details: 1 μM CpG-A, 18 hours
# Experimental: Human PBMCs (1×10^5 cells) were plated in 96-well plates (PBMCs) in RPMI media containing 10% FBS. Compounds were diluted with DMSO from a 4 mM stock of each compound to obtain different concentrations. Human PBMCs were pretreated with different concentrations of compounds for an hour prior stimulation. Cells were then stimulated with CpG-A ODN 2216 (1 μM) for 18 hours. […] The samples (Control E1 and Examples E2-E20) contained 1 μM CpG-A. Supernatant was collected after 18 hours. The IFN-α levels of samples were measured by the IFN-α ELISA obtained from PBL Interferon Source, Piscataway, N.J., known as Human IFN-alpha ELISA Kit. IFN-α levels of samples were assayed by the ELISA according to manufacturer's instructions. Inhibition of the production of IFN-α by individual compounds were determined in the CpG-A stimulated hPBMC cultures.
# [2] = system: IFN-α production; assay: IFN-α ELISA, CpG-A stimulated human PBMCs or pDCs (Example 15); type: cell-based
# Experimental: (§1) The IFN-α and TNF-α levels were measured by enzyme-linked immunoabsorbant assay (ELISA) obtained from R&D System, Minneapolis, Minn., known as Human IFN-alpha ELISA Kit (PBL Interferon Source, Cat #41100-1) and Human TNF-alpha Quantikine ELISA Kit (ThermoScientific, Cat # EH3TNFA5) respectively. […] Compounds were diluted with DMSO (PBMCs) or media (pDCs) from a 4 mM stock of each compound to obtain different concentrations. Human PBMCs or pDCs were pretreated with different concentrations of compounds for an hour prior stimulation. Cells were then stimulated with 1 μM (PBMCs) or 10 μM (PDCs) CpG-A ODN 2216 for 18 hours. The samples with Compound (II) (0.25 μM, 0.5 μM and 1 μM) are labeled as Examples B1-B3; the samples with Compound (I) (0.25 μM, 0.5 μM and 1 μM) are labeled as Examples B4-B6; the samples with CC-930 (1.0 μM, 2.0 μM and 3.0 μM) are labeled as Examples B7-B9; and the samples with chloroquine (0.5 μM, 1.0 μM and 2.0 μM) are labeled as Examples B10-B12. Keratinocytes of samples (Examples B1-B12) cultured in the presence of pDCs were stimulated with CpG-A oligonucleotide. Two control experiments were done. The first control experiment (Control BB1) was done with similar procedures mentioned-above but without CpG-A stimulation and without the addition of inhibitors. The second control experiment (Control BB2) was done with similar procedures mentioned-above but without the addition of inhibitors. Supernatant was collected after 18 hours. IFN-α and TNF-α levels were assayed by ELISA according to manufacturer's instructions.
# [3] = system: TNF-α production; assay: TNF-α ELISA, CpG-A stimulated human PBMCs or pDCs (Example 15); type: cell-based
# Experimental: as §1
# [4] = system: keratinocyte MxA; assay: pDC-keratinocyte co-culture with CpG-A stimulation, keratinocyte MxA level (Example 16); type: cell-based, human; details: for decrease in the keratinocyte MxA level: relative to Control BB2
# Experimental: (§2) The Human pDC/HEKa Coculture involves stimulation with CpG-A oligodeoxynucleotide. CpG-A-stimulation would induce pDCs to secrete interferon-alpha (IFN-α) which in turn elicits increased expression of MxA protein from keratinocytes. HEKa were plated in 6-well plates at density of 1×10^5 cells/well and incubated overnight in a defined keratinocyte medium. The medium was removed in the next day and then 1.8×10^5 pDC cells, in defined pDC medium, were overlaid on the HEKa cells. Compound (II) was added to the medium to obtain final concentrations of 0.25 μM, 0.5 μM and 1 μM. One hour after the addition of Compound (II), CpG-A was added to each of the concentrations and then incubated overnight. Same samples from Example 15 were used here.
# (§3) The cells were fixed and immunostained the co-cultures with antibodies to keratinocyte myxovirus resistance protein A (MxA) and Cytokeratin as follows using the ThermoScientific Cellomics High Content Screening (HCS) Readers using vHCS Scan Software.
# (§4) Eighteen hours after the addition of Compound (II), cocultures were fixed for 30 minutes with BD fixation/permeabilization buffer, washed, and blocked with 2% normal goat serum/bovine serum albumin solution for an hour. Cocultures were then incubated overnight with primary antibodies to MxA and Cytokeratin. Cells were washed and incubated for an hour with Alexa anti-goat and anti-rabbit fluorescein (IgG1) or TRITC-conjugated (IgG) secondary antibodies. […] Cocultures were washed and incubated in 1X phosphate buffered saline (PBS) and plates scanned using Thermo Scientific ArrayScan VTI HCS Reader, a modular High Content Screening instrument designed for high-capacity automated fluorescence imaging and quantitative analysis of fixed and live cells. The output was analyzed using Cellomics Compartmental Analysis algorithm to quantitate fluorescence levels in the green and red channels. […] Mean fluorescence intensity levels of MxA and Cytokeratin of the samples were expressed as percentage of mean fluorescence intensity levels of MxA and cytokeratin of Control BB2. […]
# [5] = system: keratinocyte cytokeratin; assay: pDC-keratinocyte co-culture with CpG-A stimulation, cytokeratin level (Example 16); type: cell-based, human; details: relative to Control BB2
# Experimental: as §2, §3, §4
# [6] = system: keratinocyte MxA; assay: Human pDC/HEKa coculture with CpG-A stimulation, keratinocyte MxA level (Example 14); type: cell-based; details: relative to CpG-A stimulated Example A1
# Experimental: as §2, with “CpG-A oligodeoxynucleotide 2216. The CpG-A stimulation” for “CpG-A oligodeoxynucleotide. CpG-A-stimulation”, “0.5 μM, 1” for “0.5”, “and 2” for “and 1”, “of these” for “of the”, “overnight.” for “overnight. Same samples from Example 15 were used here.”
# as §3
# Eighteen hours after the addition of Compound (II), cocultures were fixed for 30 minutes with BD fixation/permeabilization buffer, washed, and blocked with 2% normal goat serum/bovine serum albumin solution for an hour. Cocultures were then incubated overnight with primary antibodies to MxA and Cytokeratin. Cells were washed and incubated for an hour with Alexa anti-goat and anti-rabbit fluorescein (IgG1) or TRITC-conjugated (IgG) secondary antibodies. Nuclei were stained with DAPI or 4′,6-diamidino-2-phenylindole. Cocultures were washed and incubated in 1X phosphate buffered saline (PBS) and plates scanned using Thermo Scientific ArrayScan VTI HCS Reader, a modular High Content Screening instrument designed for high-capacity automated fluorescence imaging and quantitative analysis of fixed and live cells. The output was analyzed using Cellomics Compartmental Analysis algorithm to quantitate fluorescence levels in the green and red channels. Data was exported to Microsoft Excel worksheets. Mean fluorescence intensity levels of MxA and Cytokeratin of the samples were expressed as percentage of mean fluorescence intensity levels of MxA and cytokeratin of Example A1. Histograms were generated and statistical analysis was performed using GraphPad Prism v4.0 (GraphPad Software, Inc., San Diego, Calif.).
# FIGS. 1-2 show the levels of keratinocyte MxA and cytokeratin of the samples averaged from four independent experiments relative to the keratinocyte MxA and cytokeratin levels of Example A1 with pDCs derived from separate donors. […]
# [7] = system: cytokeratin; assay: Human pDC/HEKa coculture with CpG-A stimulation, cytokeratin level (Example 14); type: cell-based; details: 0.25-2 μM; relative to Example A1
# Experimental: The Human pDC/HEKa Coculture involves stimulation with CpG-A oligodeoxynucleotide 2216. The CpG-A stimulation would induce pDCs to secrete interferon-alpha (IFN-α) which in turn elicits increased expression of MxA protein from keratinocytes. HEKa were plated in 6-well plates at density of 1×10^5 cells/well and incubated overnight in a defined keratinocyte medium. The medium was removed in the next day and then 1.8×10^5 pDC cells, in defined pDC medium, were overlaid on the HEKa cells. Compound (II) was added to the medium to obtain final concentrations of 0.25 μM, 0.5 μM, 1 μM and 2 μM. […]
# as §3
# Eighteen hours after the addition of Compound (II), cocultures were fixed for 30 minutes with BD fixation/permeabilization buffer, washed, and blocked with 2% normal goat serum/bovine serum albumin solution for an hour. […] Cocultures were washed and incubated in 1X phosphate buffered saline (PBS) and plates scanned using Thermo Scientific ArrayScan VTI HCS Reader, a modular High Content Screening instrument designed for high-capacity automated fluorescence imaging and quantitative analysis of fixed and live cells. […]
# [8] = Homo sapiens, PBMC, read-out: inhibition of the production of IFN-α
# [9] = 0.25, 0.5 and 1 μM, relative to CpG-A stimulation (Control BB2), P<0.0001
# [10] = 0.25, 0.5 and 1 μM, relative to CpG-A stimulation (Control BB2)
# [11] = 1.0, 2.0 and 3.0 μM (Examples B7-B9), relative to Control BB2
smiles,measurement,setting,value
"Nc1cccc2c1CN(C1CCC(=O)NC1=O)C2=O (stereo not drawn) [Lenalidomide, lenalidomide]",inhibition of the production of IFN-α,"[1]; 10 μM, versus Control E1",did not affect
CCN(CCO)CCCC(C)Nc1ccnc2cc(Cl)ccc12 (stereo not drawn) [hydroxychloroquine],inhibition of the production of IFN-α,"[1]; 5 μM, versus Control E1",induced inhibition
"CCN(CC)CCCC(C)Nc1c2ccc(Cl)cc2nc2ccc(OC)cc12 (stereo not drawn) [Quinacrine, quinacrine]",inhibition of the production of IFN-α,[1]; 0.5 and 5 μM (Examples E19-E20),inhibited
O=C1CCC(N2C(=O)c3ccccc3C2=O)C(=O)N1 (stereo not drawn) [thalidomide],inhibition of the production of IFN-α,"[1]; 10 μM, versus Control E1",did not affect
"CCN(CC)CCCC(C)Nc1ccnc2cc(Cl)ccc12 (stereo not drawn) [Chloroquine, chloroquine]",inhibition at 1 µM,[2]; [8],~75%
same,inhibition at 2 µM,[2]; [8],~75%
same,inhibition at 2 µM,"[3]; Homo sapiens, PBMC, read-out: inhibition of the production of TNF-α",~50%
same,inhibition of the production of IFN-α,"[1]; 5 μM, versus Control E1",induced inhibition
"CCOc1cc(C(CS(C)(=O)=O)N2C(=O)c3cccc(NC(C)=O)c3C2=O)ccc1OC (single isomer, unassigned; (+)) [Compound (I), (+)-2-[1-(3-ethoxy-4-methoxyphenyl)-2-methylsulfonylethyl]-4-acetylaminoisoindoline-1,3-dione]",inhibition of the production of IFN-α,[2]; [9],inhibited
same,inhibition of the production of TNF-α,[3]; [10],inhibited
same,"ability to inhibit the production of the keratinocyte MxA, among the compounds tested","[4]; 0.25, 0.5 and 1 μM (Examples B4-B6)",greatest ability to inhibit
same,effect on the keratinocyte cytokeratin,[5],no significant effect
same,inhibition of the production of IFN-α,"[1]; 0.5 μM, versus Control E1",significant inhibition
same,inhibition of the production of IFN-α,"[1]; 5 μM, versus Control E1",significant inhibition
"CCOc1cc([C@@H](CS(C)(=O)=O)N2Cc3cccc(NC(=O)C4CC4)c3C2=O)ccc1OC [Compound (II), Cyclopropyl{2-[(1S)-1-(3-ethoxy-4-methoxyphenyl)-2-(methylsulfonyl)ethyl]-3-oxoisoindolin-4-yl}carboxamide]",decrease in the keratinocyte MxA protein levels,[6]; 0.25 μM,19%
same,decrease in the keratinocyte MxA protein levels,[6]; 0.5 μM,39%
same,decrease in keratinocyte MxA levels,[6]; 1 μM,29%
same,decrease in keratinocyte MxA levels,[6]; 2 μM,40%
same,effect on the cytokeratin levels on the keratinocytes,[7],no effect
same,inhibition of the production of IFN-α,[2]; [9],inhibited
same,inhibition of the production of TNF-α,[3]; [10],inhibited
same,decrease in the keratinocyte MxA level,"[4]; 0.25, 0.5 and 1 μM (Examples B1-B3)",13-15%
same,effect on the keratinocyte cytokeratin,[5],no significant effect
same,inhibition of the production of IFN-α,"[1]; 0.5 μM, versus Control E1",significant inhibition
same,inhibition of the production of IFN-α,"[1]; 5 μM, versus Control E1",significant inhibition
"O[C@H]1CC[C@H](Nc2ncc3nc(Nc4c(F)cc(F)cc4F)n([C@H]4CCOC4)c3n2)CC1 [CC-930, reference compound]",inhibition of the production of IFN-α,[2]; [11],approximately 25%
same,inhibition of the production of TNF-α,[3]; [11],approximately 25%
same,decrease in the keratinocyte MxA level,"[4]; 1 μM, P<0.05",32%
same,effect on the keratinocyte cytokeratin,[5],no significant effect
same,inhibition of the production of IFN-α,"[1]; 10 μM, versus Control E1",inhibited
